Experimental data: the supplement of paper PMC4932681
Structures can show the parent of a compound that is named as a salt.

Key:
BT-474 Tam1 [1] = test: drug sensitivity score (DSS) (DSS (dimensionless)); higher = more sensitive; extreme values may be limits of the assay; conditions: 4-OH-tamoxifen in medium 1 µM; 72 h
Outline: (§1)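 CellTiter-Glo viability was the readout, taken on a PHERAstar and normalised to vehicle-only and positive controls. It was measured after breast cancer cell lines and their resistant derivatives spent 72 h at 37 °C in 384-well plates containing library drugs at five concentrations spanning a 10 000-fold range, with 1 μM of the selecting drug in the medium of resistant lines. From logistic dose–response fits in the Breeze pipeline came drug sensitivity score, relative IC50 (curve midpoint) and top-dose inhibition.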

BT-474 Tam2 [2] = test: as above; conditions: 4-OH-tamoxifen in medium 1 µM; 72 h
Outline: as §1

MCF-7 Tam1 [3] = test: as above; conditions: 4-OH-tamoxifen in medium 1 µM; 72 h
Outline: as §1

T-47D Tam1 [4] = test: as above; conditions: 4-OH-tamoxifen in medium 1 µM; 72 h
Outline: as §1

ZR-75-1 Tam1 [5] = test: as above; conditions: 4-OH-tamoxifen in medium 1 µM; 72 h
Outline: as §1

ZR-75-1 Tam2 [6] = test: as above; conditions: 4-OH-tamoxifen in medium 1 µM; 72 h
Outline: as §1

MCF-7 [7] = test: as above; conditions: 72 h
Outline: as §1

T-47D [8] = test: as above; conditions: 72 h
Outline: as §1

ZR-75-1 [9] = test: as above; conditions: 72 h
Outline: as §1

BT-474 [10] = test: as above; conditions: 72 h
Outline: as §1

T-47D Tam2 [11] = test: as above; conditions: 4-OH-tamoxifen in medium 1 µM; 72 h
Outline: as §1

BT-474 Tam1 [12] = test: relative IC50 (midpoint of fitted logistic curve, plateau may be below 50% inhibition; CellTiter-Glo viability); higher = less potent; conditions: 4-OH-tamoxifen in medium 1 µM; 72 h
Outline: as §1

MCF-7 Tam1 [13] = test: as above; conditions: 4-OH-tamoxifen in medium 1 µM; 72 h
Outline: as §1

T-47D Tam1 [14] = test: as above; conditions: 4-OH-tamoxifen in medium 1 µM; 72 h
Outline: as §1

ZR-75-1 Tam1 [15] = test: as above; conditions: 4-OH-tamoxifen in medium 1 µM; 72 h
Outline: as §1

MCF-7 [16] = test: as above; conditions: 72 h
Outline: as §1

T-47D [17] = test: as above; conditions: 72 h
Outline: as §1

ZR-75-1 [18] = test: as above; conditions: 72 h
Outline: as §1

BT-474 [19] = test: as above; conditions: 72 h
Outline: as §1

T-47D Tam2 [20] = test: as above; conditions: 4-OH-tamoxifen in medium 1 µM; 72 h
Outline: as §1

BT-474 Tam2 [21] = test: as above; conditions: 4-OH-tamoxifen in medium 1 µM; 72 h
Outline: as §1

ZR-75-1 Tam2 [22] = test: as above; conditions: 4-OH-tamoxifen in medium 1 µM; 72 h
Outline: as §1

SMILES	relative IC50 (BT-474 Tam1 [12]) [µM]	relative IC50 (MCF-7 Tam1 [13]) [µM]	relative IC50 (T-47D Tam1 [14]) [µM]	relative IC50 (MCF-7 [16]; 4-OH-tamoxifen in medium 0 µM) [µM]	relative IC50 (MCF-7 [16]; 4-OH-tamoxifen in medium 1 µM) [µM]	relative IC50 (T-47D [17]; 4-OH-tamoxifen in medium 1 µM) [µM]	relative IC50 (BT-474 [19]; 4-OH-tamoxifen in medium 0 µM) [µM]	relative IC50 (BT-474 [19]; 4-OH-tamoxifen in medium 1 µM) [µM]	relative IC50 (T-47D Tam2 [20]) [µM]	relative IC50 (BT-474 Tam2 [21]) [µM]	relative IC50 (T-47D [17]; 4-OH-tamoxifen in medium 0 µM) [µM]	drug sensitivity score (BT-474 Tam1 [1])	drug sensitivity score (BT-474 Tam2 [2])	drug sensitivity score (MCF-7 Tam1 [3])	drug sensitivity score (T-47D Tam1 [4])	drug sensitivity score (ZR-75-1 Tam1 [5])	drug sensitivity score (ZR-75-1 Tam2 [6])	drug sensitivity score (MCF-7 [7]; 4-OH-tamoxifen in medium 0 µM)	drug sensitivity score (MCF-7 [7]; 4-OH-tamoxifen in medium 1 µM)	drug sensitivity score (T-47D [8]; 4-OH-tamoxifen in medium 0 µM)	drug sensitivity score (T-47D [8]; 4-OH-tamoxifen in medium 1 µM)	drug sensitivity score (ZR-75-1 [9]; 4-OH-tamoxifen in medium 0 µM)	drug sensitivity score (ZR-75-1 [9]; 4-OH-tamoxifen in medium 1 µM)	drug sensitivity score (BT-474 [10]; 4-OH-tamoxifen in medium 0 µM)	drug sensitivity score (BT-474 [10]; 4-OH-tamoxifen in medium 1 µM)	drug sensitivity score (T-47D Tam2 [11])	relative IC50 (ZR-75-1 Tam1 [15]) [µM]	relative IC50 (ZR-75-1 [18]; 4-OH-tamoxifen in medium 0 µM) [µM]	relative IC50 (ZR-75-1 Tam2 [22]) [µM]	relative IC50 (ZR-75-1 [18]; 4-OH-tamoxifen in medium 1 µM) [µM]
N#CCNC(=O)c1ccc(-c2ccnc(Nc3ccc(N4CCOCC4)cc3)n2)cc1 [Momelotinib (CYT-387)]	5.2	2.03	0.346	4.2	2.52	> 10	> 10	> 10	4.18	–	–	1.15	0.414	3.23	5.08	0	0	1.83	4.64	0.52	0	0	0.68	0	0	1.42	> 10	> 10	–	–
Oc1ncnc2[nH]ncc12 [Allopurinol]	> 10	> 10	> 10	> 10	> 10	> 10	> 10	–	> 10	–	> 10	0	0	0	0	0	0	0	0	0	0	0	0	0	2.18	0	–	> 10	> 10	> 10
CCCCCOC(=O)Nc1nc(=O)n([C@@H]2O[C@H](C)[C@@H](O)[C@H]2O)cc1F [Capecitabine]	> 10	> 10	> 10	> 10	> 10	> 10	> 10	> 10	> 10	> 10	> 10	0	0	0	0	0.129	0.0192	0	0	0	0	1.86	0	0	0	0	–	–	–	> 10
COCC1(CO)C(=O)C2CCN1CC2 (configuration not stated) [Prima-1 Met]	> 10	> 10	> 10	–	> 10	> 10	> 10	> 10	> 10	> 10	> 10	0	0	0	0	0	0.24	0.0674	0	0	0	0	0	0	0	0	> 10	> 10	–	> 10
C[C@@H]1CCN(C(=O)CC#N)C[C@@H]1N(C)c1ncnc2[nH]ccc12 [Tofacitinib (Tasocitinib)]	> 5	> 5	> 5	> 5	–	> 5	> 5	> 5	> 5	> 5	> 5	0	0	0	0	0	0.0132	0	0.208	0	0	0	0	0	0	0	> 5	> 5	–	> 5
C=CCN(/C=C1/C(=O)O[C@H](COC)[C@@]2(C)C1=C(O)C(=O)C1=C2[C@H](OC(C)=O)C[C@]2(C)C(=O)CC[C@@H]12)CC=C [Sonolisib (PX-866)]	> 10	> 10	> 10	> 10	–	> 10	> 10	> 10	> 10	> 10	> 10	0	0	0	0	0.103	0.0742	0	0	0	0	0	0.361	0	0	0	–	> 10	–	–
S=P(N1CC1)(N1CC1)N1CC1 [Thio-TEPA]	> 100	> 100	> 100	> 100	> 100	> 100	> 100	> 100	> 100	> 100	> 100	0	0	0	0	0.276	0	0	0	0	0	0	0	0	0	0	–	> 100	> 100	> 100
CCN(CC)CCOc1ccc(C(=C(Cl)c2ccccc2)c2ccccc2)cc1 [Clomifene citrate]	2.8	3.2	1.83	–	2.36	–	3.34	2.38	3.17	1.79	–	5.39	8.36	3.09	3.26	1.02	2.03	0	6.09	0.434	1.21	0.493	1.42	4.53	5.95	2.56	–	–	3.33	3.81

Second part, led by results:

relative IC50 (BT-474 Tam1 [12]) [µM]	relative IC50 (MCF-7 Tam1 [13]) [µM]	relative IC50 (T-47D Tam1 [14]) [µM]	relative IC50 (MCF-7 [16]; 4-OH-tamoxifen in medium 0 µM) [µM]	relative IC50 (MCF-7 [16]; 4-OH-tamoxifen in medium 1 µM) [µM]	relative IC50 (T-47D [17]; 4-OH-tamoxifen in medium 1 µM) [µM]	relative IC50 (BT-474 [19]; 4-OH-tamoxifen in medium 0 µM) [µM]	relative IC50 (BT-474 [19]; 4-OH-tamoxifen in medium 1 µM) [µM]	relative IC50 (T-47D Tam2 [20]) [µM]	relative IC50 (BT-474 Tam2 [21]) [µM]	relative IC50 (T-47D [17]; 4-OH-tamoxifen in medium 0 µM) [µM]	SMILES	drug sensitivity score (BT-474 Tam1 [1])	drug sensitivity score (BT-474 Tam2 [2])	drug sensitivity score (MCF-7 Tam1 [3])	drug sensitivity score (T-47D Tam1 [4])	drug sensitivity score (ZR-75-1 Tam1 [5])	drug sensitivity score (ZR-75-1 Tam2 [6])	drug sensitivity score (MCF-7 [7]; 4-OH-tamoxifen in medium 0 µM)	drug sensitivity score (MCF-7 [7]; 4-OH-tamoxifen in medium 1 µM)	drug sensitivity score (T-47D [8]; 4-OH-tamoxifen in medium 0 µM)	drug sensitivity score (T-47D [8]; 4-OH-tamoxifen in medium 1 µM)	drug sensitivity score (ZR-75-1 [9]; 4-OH-tamoxifen in medium 0 µM)	drug sensitivity score (ZR-75-1 [9]; 4-OH-tamoxifen in medium 1 µM)	drug sensitivity score (BT-474 [10]; 4-OH-tamoxifen in medium 0 µM)	drug sensitivity score (BT-474 [10]; 4-OH-tamoxifen in medium 1 µM)	drug sensitivity score (T-47D Tam2 [11])	relative IC50 (ZR-75-1 Tam1 [15]) [µM]	relative IC50 (ZR-75-1 [18]; 4-OH-tamoxifen in medium 0 µM) [µM]	relative IC50 (ZR-75-1 Tam2 [22]) [µM]	relative IC50 (ZR-75-1 [18]; 4-OH-tamoxifen in medium 1 µM) [µM]
1.35	> 10	1.17	0.615	1.49	> 10	0.347	0.891	0.92	0.992	> 10	COc1ccc(S(=O)(=O)Nc2cccnc2Nc2ccc(O)cc2)cc1 [ABT-751]	6.57	6.39	0	6.4	0	1.41	6.87	4.14	0	0	5.44	0.184	6.81	9.13	4.48	> 10	0.412	–	–
3.56	6.95	1.43	1.79	2.36	2.89	> 10	2.92	2.27	> 10	2.34	COc1cc(Nc2ncc(F)c(Nc3ccc4c(n3)N(COP(=O)(O)O)C(=O)C(C)(C)O4)n2)cc(OC)c1OC	2.63	0	1.04	4.15	1.22	1.42	2.7	4.99	2.65	1.95	0	0.307	0	2.25	3.3	–	> 10	3.16	–
1.58	4.02	1.32	3.14	4.01	3.38	2.95	1.13	1.78	1.61	2.48	COc1cc(Nc2c(C#N)cnc3cc(OCCCN4CCN(C)CC4)c(OC)cc23)c(Cl)cc1Cl [Bosutinib]	8.93	8.71	2.05	7.41	0.537	3.08	4.57	3.41	2.64	3.44	0.173	0.731	4.93	10.5	6.72	–	–	3.19	–
1.59	1.79	0.797	3.66	1.1	2.6	1.27	–	1.53	0.619	2.22	COC1=CC(c2cc3ccccc3[nH]2)=N/C1=C\c1[nH]c(C)cc1C [Obatoclax (GX15-070)]	3.09	12.1	4.3	8.83	1.02	4.94	2	8.57	3.35	2.73	1.96	2.4	6.87	0.367	3.22	–	2.38	1.42	1.71
0.249	> 10	0.687	0.202	0.141	1.73	0.0429	0.0843	0.583	0.442	–	CCC1=C[C@@H]2CN(C1)Cc1c([nH]c3ccccc13)[C@@](C(=O)OC)(c1cc3c(cc1OC)N(C)[C@H]1[C@@](O)(C(=O)OC)[C@H](OC(C)=O)[C@]4(CC)C=CCN5CC[C@]31[C@@H]54)C2 [Vinorelbine (tartrate)]	17.2	14.3	0	7.24	1.16	2.36	9.78	12.3	6.22	2.28	9.06	3.16	13.8	23	8.26	–	0.0433	–	1.54
1.59	3.94	2.88	2.87	3.34	3.9	–	3.35	3.36	3.57	–	CC/C(=C(\c1ccc(O)cc1)c1ccc(OCCN(C)C)cc1)c1ccccc1 [4-hydroxytamoxifen]	9.04	4.79	1.87	2.07	0.263	1.3	3.05	4.41	0.306	2.56	0	1.5	0.905	5.15	4.19	–	> 10	–	3.2
0.329	3.26	1.56	1.41	2.7	–	> 10	1.04	1.98	0.749	–	Cc1cc(Nc2cc(CN3CCOCC3)c3nc(C)c(Cc4ccc(Cl)cc4F)n3n2)n[nH]1	16.2	12.8	2.42	3.55	0	0.848	6.61	4.32	1.41	1.86	0	0	0	7.73	3.58	> 10	> 10	–	> 10
